Like-named read-outs stand apart in the source and are kept apart here.
How the values were obtained:
Assay type in all cases: cell-based
Enterobacterales = assay: MIC, broth microdilution, CDC/FDA Antibiotic Resistance Isolate Bank (Example 7, Tables 8, 11, 12)
53 CRE and CPE strains = assay: MICrange, MIC50, MIC80, MIC90 for 53 bacterial isolates (Example 5, Table 5)
Enterobacter hormaechei = assay: MIC, broth microdilution, standard strains and Japanese clinical isolates (Example 5, Table 4); details: ATCCBAA2082; KUB4001 Enterobacter hormaechei ATCC BAA-2082, KPC-2
Enterobacter cloacae = assay: as above

C[C@@H](O)[C@H]1C(=O)N2C(C(=O)O)=C(S[C@@H]3CN[C@H](C(=O)N(C)C)C3)[C@H](C)[C@H]12 [MEPM, meropenem]
4 µg/mL: MIC (Enterobacterales; Klebsiella pneumoniae, KUB No. 5544, AR Bank # 47, no carbapenemase gene, read-out: MIC) | MIC (Enterobacterales; Klebsiella pneumoniae, KUB No. 5576, AR Bank # 79, no carbapenemase gene, read-out: MIC) | MIC (Enterobacterales; Klebsiella pneumoniae, KUB No. 5577, AR Bank # 80, IMP-4, read-out: MIC) | MIC (Enterobacterales; Klebsiella pneumoniae, KUB No. 5609, AR Bank # 112, KPC-3, read-out: MIC) | MIC (Enterobacterales; Klebsiella pneumoniae, KUB No. 5623, AR Bank # 126, KPC-2, read-out: MIC) | MIC (Enterobacterales; Klebsiella pneumoniae, KUB No. 5626, AR Bank # 129, KPC-3, read-out: MIC) | MIC (Enterobacterales; Klebsiella pneumoniae, KUB No. 5759, AR Bank# 363, KPC-2, read-out: MIC) | MIC (Enterobacterales; Klebsiella pneumoniae, KUB No. 5809, AR Bank# 504, OXA-48, read-out: MIC) | MIC50 (53 CRE and CPE strains; 53 CRE and CPE strains, read-out: MIC50) | MIC50 (53 CRE and CPE strains; 53 bacterial isolates) | MIC (Enterobacter cloacae; KUB3610 Enterobacter cloacae Clinical isolate, IMP-1)
0.06 to 256 µg/mL: MICrange (53 CRE and CPE strains; 53 bacterial isolates)
≤ 0.06 µg/mL: MIC (Enterobacterales; Klebsiella pneumoniae, KUB No. 5584, AR Bank # 87, no carbapenemase gene, read-out: MIC) | MIC (Enterobacterales; Proteus mirabilis, KUB No. 5775, AR Bank# 379, no carbapenemase genes, read-out: MIC) | MIC (Enterobacterales; Serratia marcescens, KUB No. 5825, AR Bank# 520, no carbapenemase genes, read-out: MIC) | MIC (Enterobacterales; Serratia marcescens, KUB No. 5826, AR Bank# 521, no carbapenemase genes, read-out: MIC)
0.12 µg/mL: MIC (Enterobacterales; Klebsiella pneumoniae, KUB No. 5636, AR Bank# 139, NDM-1, read-out: MIC) | MIC (Enterobacterales; Klebsiella pneumoniae, KUB No. 5772, AR Bank# 376, no carbapenemase genes, read-out: MIC) | MIC (Enterobacterales; Proteus mirabilis, KUB No. 5556, AR Bank # 59, no carbapenemase gene, read-out: MIC) | MIC (Enterobacterales; Proteus mirabilis, KUB No. 5653, AR Bank# 156, KPC-2, read-out: MIC)
2 µg/mL: MIC (Enterobacterales; Klebsiella pneumoniae, KUB No. 5541, AR Bank # 44, no carbapenemase gene, read-out: MIC) | MIC (Enterobacterales; Klebsiella pneumoniae, KUB No. 5573, AR Bank # 76, VIM-1, read-out: MIC) | MIC (Enterobacterales; Kluyvera ascorbata) | MIC (Enterobacterales; Morganella morganii, KUB No. 5824, AR Bank# 519, no carbapenemase genes, read-out: MIC) | MIC (Enterobacterales; Proteus mirabilis, KUB No. 5656, AR Bank# 159, NDM-1, read-out: MIC) | MIC (Enterobacterales; Serratia marcescens, KUB No. 5620, AR Bank # 123, SME-3, read-out: MIC)
0.25 µg/mL: MIC (Enterobacterales; Klebsiella pneumoniae, KUB No. 5531, AR Bank # 34, IMP-4, read-out: MIC) | MIC (Enterobacter cloacae; KUB3165 Enterobacter cloacae Clinical isolate, IMP-34) | MIC (Enterobacter cloacae; KUB3167 Enterobacter cloacae Clinical isolate, IMP-1)
1 µg/mL: MIC (Enterobacterales; Klebsiella pneumoniae, KUB No. 5536, AR Bank # 39, OXA-181, read-out: MIC) | MIC (Enterobacterales; Klebsiella pneumoniae, KUB No. 5637, AR Bank# 140, OXA-181, read-out: MIC) | MIC (Enterobacterales; Klebsiella pneumoniae, KUB No. 5639, AR Bank# 142, OXA-181, read-out: MIC) | MIC (Enterobacterales; Klebsiella pneumoniae, KUB No. 5760, AR Bank# 364, no carbapenemase genes, read-out: MIC) | MIC (Enterobacterales; Morganella morganii, KUB No. 5630, AR Bank# 133, KPC-2, read-out: MIC) | MIC (Enterobacterales; Proteus mirabilis, KUB No. 5652, AR Bank# 155, KPC-6, read-out: MIC) | MIC (Enterobacterales; Proteus mirabilis, KUB No. 5773, AR Bank# 377, KPC-3, read-out: MIC)
32 µg/mL: MIC (Enterobacterales; Klebsiella ozaenae, KUB No. 5593, AR Bank # 96, KPC-3, read-out: MIC) | MIC (Enterobacterales; Klebsiella pneumoniae, KUB No. 5543, AR Bank # 46, VIM-27, read-out: MIC) | MIC (Enterobacterales; Klebsiella pneumoniae, KUB No. 5546, AR Bank # 49, NDM-1, read-out: MIC) | MIC (Enterobacterales; Klebsiella pneumoniae, KUB No. 5594, AR Bank # 97, KPC-3, read-out: MIC) | MIC (Enterobacterales; Serratia marcescens, KUB No. 5619, AR Bank # 122, SME-3, read-out: MIC) | MIC (Enterobacterales; Serratia marcescens, KUB No. 5621, AR Bank # 124, SME-3, read-out: MIC)
64 µg/mL: MIC90 (53 CRE and CPE strains; 53 CRE and CPE strains, read-out: MIC90) | MIC90 (53 CRE and CPE strains; 53 bacterial isolates)
0.06 µg/mL: MIC (Enterobacter cloacae; KUB3168 Enterobacter cloacae Clinical isolate, carbapenemase genes -)
> 32 µg/mL: MIC (Enterobacterales; Klebsiella pnemnonice, KUB No. 5784, AR Bank# 438, KPC-3, read-out: MIC) | MIC (Enterobacterales; Klebsiella pneumoniae, KUB No. 5537, AR Bank # 40, VIM-27, read-out: MIC) | MIC (Enterobacterales; Klebsiella pneumoniae, KUB No. 5565, AR Bank # 68, OXA-232, NDM-1, read-out: MIC) | MIC (Enterobacterales; Klebsiella pneumoniae, KUB No. 5603, AR Bank # 106, NDM-1, read-out: MIC) | MIC (Enterobacterales; Klebsiella pneumoniae, KUB No. 5610, AR Bank # 113, KPC-3, read-out: MIC) | MIC (Enterobacterales; Klebsiella pneumoniae, KUB No. 5635, AR Bank# 138, NDM-7, read-out: MIC) | MIC (Enterobacterales; Klebsiella pneumoniae, KUB No. 5640, AR Bank# 143, NDM-L, read-out: MIC) | MIC (Enterobacterales; Klebsiella pneumoniae, KUB No. 5650, AR Bank# 153, OXA-232, NDM-1, read-out: MIC) | MIC (Enterobacterales; Klebsiella pneumoniae, KUB No. 5797, AR Bank# 453, KPC-3, read-out: MIC) | MIC (Enterobacterales; Klebsiella pneumoniae, KUB No. 5812, AR Bank# 507, OXA-232, NDM-1, read-out: MIC)
16 µg/mL: MIC (Enterobacterales; Klebsiella pneumoniae, KUB No. 5604, AR Bank # 107, no carbapenemase gene, read-out: MIC) | MIC (Enterobacterales; Klebsiella pneumoniae, KUB No. 5614, AR Bank # 117, KPC-3, read-out: MIC) | MIC (Enterobacterales; Klebsiella pneumoniae, KUB No. 5617, AR Bank # 120, KPC-2, read-out: MIC) | MIC (Enterobacterales; Klebsiella pneumoniae, KUB No. 5622, AR Bank # 125, KPC-3, read-out: MIC) | MIC (Enterobacterales; Klebsiella pneumoniae, KUB No. 5810, AR Bank# 505, NDM-1, read-out: MIC) | MIC (Enterobacterales; Klebsiella pneumoniae, KUB No. 5811, AR Bank# 506, NDM-1, read-out: MIC) | MIC (Enterobacterales; Klebsiella pneumoniae, KUB No. 5828, AR Bank# 523, KPC-2 (row continued in Table 8-7), read-out: MIC) | MIC (Enterobacterales; Klebsiella pneumoniae, KUB No. 5829, AR Bank# 524, KPC-3, read-out: MIC) | MIC (Enterobacterales; Salmonella enterica) | MIC (Enterobacterales; Serratia marcescens, KUB No. 5588, AR Bank # 91, SME-3, read-out: MIC) | MIC (Enterobacterales; Serratia marcescens, KUB No. 5596, AR Bank # 99, SME-3, read-out: MIC) | MIC (Enterobacterales; Serratia marcescens, KUB No. 5618, AR Bank # 121, SME-3, read-out: MIC) | MIC80 (53 CRE and CPE strains; 53 CRE and CPE strains, read-out: MIC80) | MIC80 (53 CRE and CPE strains; 53 bacterial isolates) | MIC (Enterobacter hormaechei) | MIC (Enterobacter cloacae; ATCCBAA2341, KUB4002 Enterobacter cloacae ATCC BAA-2341, KPC-3) | MIC (Enterobacter cloacae; KUB3609 Enterobacter cloacae Clinical isolate, IMP-1)
0.5 µg/mL: MIC (Enterobacterales; Klebsiella pneumoniae, KUB No. 5540, AR Bank # 43, no carbapenemase gene, read-out: MIC) | MIC (Enterobacterales; Klebsiella pneumoniae, KUB No. 5632, AR Bank# 135, VIM-1, read-out: MIC) | MIC (Enterobacterales; Serratia marcescens, KUB No. 5628, AR Bank # 131, SME-3, read-out: MIC)
8 µg/mL: MIC (Enterobacterales; Klebsiella pneumoniae, KUB No. 5538, AR Bank # 41, NDM-1, read-out: MIC) | MIC (Enterobacterales; Klebsiella pneumoniae, KUB No. 5563, AR Bank # 66, OXA-232, read-out: MIC) | MIC (Enterobacterales; Klebsiella pneumoniae, KUB No. 5595, AR Bank # 98, KPC-2, read-out: MIC) | MIC (Enterobacterales; Klebsiella pneumoniae, KUB No. 5606, AR Bank # 109, no carbapenemase gene, read-out: MIC) | MIC (Enterobacterales; Klebsiella pneumoniae, KUB No. 5612, AR Bank # 115, KPC-3, read-out: MIC) | MIC (Enterobacterales; Klebsiella pneumoniae, KUB No. 5642, AR Bank# 145, NDM-1, read-out: MIC) | MIC (Enterobacterales; Klebsiella pneumoniae, KUB No. 5643, AR Bank# 146, NDM-1, read-out: MIC) | MIC (Enterobacterales; Klebsiella pneumoniae, KUB No. 5645, AR Bank# 148, NDM-1, read-out: MIC) | MIC (Enterobacterales; Klebsiella pneumoniae, KUB No. 5655, AR Bank# 158, NDM-1, read-out: MIC) | MIC (Enterobacterales; Klebsiella pneumoniae, KUB No. 5657, AR Bank# 160, OXA-48, read-out: MIC) | MIC (Enterobacterales; Klebsiella pneumoniae, KUB No. 5757, AR Bank# 361, KPC-2, read-out: MIC) | MIC (Enterobacterales; Klebsiella pneumoniae, KUB No. 5758, AR Bank# 362, KPC-2, read-out: MIC) | MIC (Enterobacterales; Klebsiella pneumoniae, KUB No. 5827, AR Bank# 522, KPC-2, read-out: MIC) | MIC (Enterobacterales; Klebsiella pneumoniae, KUB No. 5830, AR Bank# 525, KPC-11, read-out: MIC) | MIC (Enterobacterales; Klebsiella pneumonice, KUB No. 5649, AR Bank# 152, NDM-1, read-out: MIC) | MIC (Enterobacterales; Providencia rettgeri) | MIC (Enterobacterales; Serratia marcescens, KUB No. 5627, AR Bank # 130, SME-3, read-out: MIC) | MIC (Enterobacterales; Serratia marcescens, KUB No. 5822, AR Bank# 517, KPC-3, read-out: MIC)

Source: patent publication EP4635500A1, “THERAPEUTIC AGENT FOR BACTERIAL INFECTION” (Sumitomo Pharma Co., Ltd., priority 2022, dated 2024)
